Data: patent publication US20180201650A1 (BGI SHENZHEN, priority 2014, published 2018)

System: HVA calcium channel
Format: cell-based, rat

COC(=O)C1=C(C)NC(C)=C(C(=O)OC)C1c1ccccc1[N+](=O)[O-] [Nifedipine, reference compound]
current after loading (pA): −734.31 pA
current before loading (pA): −1471.35 pA
inhibition rate (%) (10 μM): 50.09%
